# Measurements as given in the supplement of paper PMC10307832.
# Columns and labels:
# Experiment in all cases: relative viability (nuclei count vs DMSO), 5 days (fraction); higher = more cells survive
# [1] = compound: CC(C)CCN1c2nc(Nc3cc(F)c(O)c(F)c3)ncc2N(C)C(=O)C1C [BI-D1870] + O=C(c1cc(Cc2n[nH]c(=O)c3ccccc23)ccc1F)N1CCN(C(=O)C2CC2)CC1 [Olaparib] (partner 8 µM)
# Procedure, shortened: (§1)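 Lung cancer cell lines were seeded in 1536-well plates and dosed by pin tool the next day, with either a single drug or a fixed anchor-drug dose combined with five library-drug doses (not always all listed) spaced in √10 steps. Five days later, one step fixed the cells and stained their nuclei (final 0.05% Triton X-100, 1% formaldehyde, 1 ug/ml Hoechst), and nuclei were counted on 4× images. Relative viability is the nuclei count in treated wells divided by the count in vehicle wells, and each value is the median of duplicate plates.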
# [2] = compound: O=c1ncccn1[C@@H]1O[C@H](CO)[C@@H](O)[C@H]1O [Zebularine] + CC(=O)Nc1cccc(-n2c(=O)n(C3CC3)c(=O)c3c(Nc4ccc(I)cc4F)n(C)c(=O)c(C)c32)c1 [Trametinib] (partner 0.02 µM)
# Procedure, shortened: as §1
# [3] = compound: O=c1ncccn1[C@@H]1O[C@H](CO)[C@@H](O)[C@H]1O [Zebularine] + COc1cccc2cc(-c3nc([C@H]4CC[C@H](C(=O)O)CC4)n4ncnc(N)c34)[nH]c12 [OSI-027] (partner 0.5 µM)
# Procedure, shortened: as §1
# [4] = compound: O=c1ncccn1[C@@H]1O[C@H](CO)[C@@H](O)[C@H]1O [Zebularine] + C[C@@H](Oc1cc(-c2cnn(C3CCNCC3)c2)cnc1N)c1c(Cl)ccc(F)c1Cl [Crizotinib] (partner 1 µM)
# Procedure, shortened: as §1
Cell Line,relative viability ([1]; first compound 0.04 µM),relative viability ([1]; first compound 0.1265 µM),relative viability ([1]; first compound 0.4 µM),relative viability ([1]; first compound 1.265 µM),relative viability ([1]; first compound 4 µM),relative viability ([2]; first compound 1 µM),relative viability ([2]; first compound 3.162 µM),relative viability ([2]; first compound 10 µM),relative viability ([2]; first compound 31.62 µM),relative viability ([2]; first compound 100 µM),relative viability ([3]; first compound 1 µM),relative viability ([3]; first compound 3.162 µM),relative viability ([3]; first compound 10 µM),relative viability ([3]; first compound 31.62 µM),relative viability ([3]; first compound 100 µM),relative viability ([4]; first compound 1 µM),relative viability ([4]; first compound 3.162 µM),relative viability ([4]; first compound 10 µM),relative viability ([4]; first compound 31.62 µM),relative viability ([4]; first compound 100 µM)
HCC-15,0.819,0.761,0.713,0.694,0.404,0.375,0.377,0.395,0.392,0.298,0.85,0.587,0.457,0.537,0.27,1.02,0.761,0.586,0.769,0.219
HCC-44,1,0.954,0.98,1.05,0.976,1.04,1.11,0.968,1.1,0.668,0.627,0.462,0.435,0.398,0.364,0.808,0.798,0.698,0.656,0.166
COR-L23,0.315,0.325,0.327,0.35,0.245,0.642,0.602,0.463,0.575,0.241,1.07,0.794,0.383,0.452,0.236,0.633,0.742,0.454,0.351,0.182
HCC-78,0.662,0.932,0.682,0.971,0.68,0.893,0.742,,0.794,0.436,0.394,0.381,0.305,0.366,0.401,0.336,0.335,0.298,0.359,0.252
NCI-H727,0.704,0.563,0.675,0.649,0.779,0.385,0.35,0.401,0.396,0.444,0.52,0.54,0.522,0.674,0.446,0.927,0.613,0.638,0.947,0.881
NCI-H2087,0.708,0.519,0.572,0.563,0.564,0.195,0.166,0.204,0.206,0.142,0.379,0.457,0.286,0.508,0.27,1.07,0.803,0.551,0.654,0.197
BEN,1.23,1,1.02,1.11,0.806,0.996,0.994,0.781,0.491,0.49,0.544,0.29,0.279,0.24,0.272,0.812,0.81,0.433,0.37,0.328
LCLC-103H,0.813,0.68,0.676,0.764,0.671,0.727,0.672,0.604,0.675,0.612,0.474,0.434,0.321,0.414,0.462,1.07,1.11,0.867,1.07,0.862
EKVX,0.916,0.789,0.805,0.969,0.721,0.51,0.328,,0.294,0.321,0.679,0.644,0.617,0.749,0.695,1.11,0.87,,0.896,1.11
LXF-289,1.1,1.04,1.06,1.08,0.612,0.796,0.731,0.651,0.488,0.296,0.827,0.69,0.626,0.564,0.329,0.835,0.828,0.714,0.622,0.238
NCI-H650,0.443,0.375,0.366,0.369,0.315,0.895,0.97,0.826,0.471,0.262,0.54,0.524,0.437,0.356,0.26,0.598,0.652,0.587,0.43,0.334
NCI-H1650,0.722,0.767,0.788,0.943,0.817,0.674,0.597,0.399,0.9,0.488,0.842,0.663,0.285,0.834,0.416,1.04,0.788,,1.13,0.86
NCI-H2085,0.813,0.768,0.737,0.702,0.429,0.491,0.547,0.522,0.433,0.392,0.737,0.537,0.602,0.769,0.516,0.986,0.814,0.827,0.804,0.488
LC-2-ad,0.691,0.66,0.725,0.609,0.624,0.957,0.979,0.657,0.777,0.356,0.858,0.559,0.546,0.573,0.529,0.498,0.434,0.363,0.377,0.249
COR-L 105,0.79,0.533,0.713,0.687,0.678,0.517,0.394,0.439,0.459,0.396,0.763,0.642,0.566,0.697,0.684,1.07,0.785,0.503,0.718,0.729
NCI-H1355,0.898,0.698,0.713,0.74,0.57,0.449,0.45,0.468,0.383,0.335,0.435,0.388,0.357,0.494,0.381,1.12,0.966,0.87,0.404,0.315
